Assay: Solvolytic stability of compound was measured relative to p-hydroxyphenethyl bromide
Assay type: functional, Rattus norvegicus

Oc1ccc(CCBr)cc1
1/krel: 1

Source: ChEMBL document CHEMBL1121966, “(2R*,3S*)-1-[125I]Iodo-2,3-bis(4-hydroxyphenyl)pentane ([125I]iodonorhexestrol) and (2R*,3S*)-1-[77Br]Bromo-2,3-bis(4-hydroxyphenyl)pentane ([77Br]bromonorhexestrol), two gamma-emitting estrogens that show receptor-mediated uptake by target tissues in vivo” (1982)
